pEC50, pIC50: −log10 of the molar value.
Key:
[1] = biological target: T1, DDB1DB/DCAF15 and RBM39 R1R2 complex (Homo sapiens, UniProt Q14498+Q66K64); assay: DCAF15 RBM39 Complex Formation Assay (FRET); assay type: binding; settings: FRET ratio Em 665/Em 615, incubated overnight at 4° C.
T1 construct: Amino acids 150 to 331 of RBM39 were cloned into pGEX4T3; GST (from vector pGEX4T3); TEV cleavage site (N); made in house; host or cells: DDB1DB/His-DCAF15: baculovirus/Sf9 co-expression; RBM39 R1R2: E. coli (pGEX4T3)
Method in brief: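 Ternary complex formation read by TR-FRET (Em 665/615, excitation 340 nm) after overnight incubation at 4° C of 20 nM baculovirus DDB1DB/His-DCAF15 and 50 nM E. coli RBM39 RRM1-RRM2 FLAG fragment with 14-point, 3-fold compound dilutions from 1 μM; EC50 from 4-parameter fit.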

[2] = system: HCT116 human colorectal carcinoma cells; assay: CellTiter-Glo Luminescent Cell Viability Assay; assay type: cell-based; settings: HCT-116, 72 h, 3 days
Method in brief: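 CellTiter-Glo luminescence gave viability after 3 days of compound exposure in HCT116 cells grown in DMEM/10% FBS. Final concentrations ran from 5 to 0.0002 […] in 1:3 steps, each in triplicate, with IC50 derived from the curves.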

T1 sequence (Q66K64 whole entry, the tested form may be a part): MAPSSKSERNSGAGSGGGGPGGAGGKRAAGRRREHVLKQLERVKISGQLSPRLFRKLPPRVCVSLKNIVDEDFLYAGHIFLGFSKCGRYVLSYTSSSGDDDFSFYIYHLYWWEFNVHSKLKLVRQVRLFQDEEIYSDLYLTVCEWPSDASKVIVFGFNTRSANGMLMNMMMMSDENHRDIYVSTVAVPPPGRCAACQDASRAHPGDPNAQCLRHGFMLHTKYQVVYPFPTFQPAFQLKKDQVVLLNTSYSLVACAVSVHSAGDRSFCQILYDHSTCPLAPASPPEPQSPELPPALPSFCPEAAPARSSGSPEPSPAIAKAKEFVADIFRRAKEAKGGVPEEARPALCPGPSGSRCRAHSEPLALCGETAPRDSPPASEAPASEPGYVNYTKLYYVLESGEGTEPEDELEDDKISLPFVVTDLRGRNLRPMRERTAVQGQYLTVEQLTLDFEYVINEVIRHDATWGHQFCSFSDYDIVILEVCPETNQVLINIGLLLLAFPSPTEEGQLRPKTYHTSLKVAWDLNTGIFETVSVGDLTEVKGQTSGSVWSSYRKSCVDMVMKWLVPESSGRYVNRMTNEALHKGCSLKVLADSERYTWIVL
T1 sequence (Q14498 150-331): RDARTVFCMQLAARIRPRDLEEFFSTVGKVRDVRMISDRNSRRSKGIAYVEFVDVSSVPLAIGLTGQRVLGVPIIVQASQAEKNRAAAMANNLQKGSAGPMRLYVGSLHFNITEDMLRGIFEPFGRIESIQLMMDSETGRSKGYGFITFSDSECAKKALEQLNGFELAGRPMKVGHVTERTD
T1 sequence (Q16531 with tags, fused parts or gaps DEL396-708 partner): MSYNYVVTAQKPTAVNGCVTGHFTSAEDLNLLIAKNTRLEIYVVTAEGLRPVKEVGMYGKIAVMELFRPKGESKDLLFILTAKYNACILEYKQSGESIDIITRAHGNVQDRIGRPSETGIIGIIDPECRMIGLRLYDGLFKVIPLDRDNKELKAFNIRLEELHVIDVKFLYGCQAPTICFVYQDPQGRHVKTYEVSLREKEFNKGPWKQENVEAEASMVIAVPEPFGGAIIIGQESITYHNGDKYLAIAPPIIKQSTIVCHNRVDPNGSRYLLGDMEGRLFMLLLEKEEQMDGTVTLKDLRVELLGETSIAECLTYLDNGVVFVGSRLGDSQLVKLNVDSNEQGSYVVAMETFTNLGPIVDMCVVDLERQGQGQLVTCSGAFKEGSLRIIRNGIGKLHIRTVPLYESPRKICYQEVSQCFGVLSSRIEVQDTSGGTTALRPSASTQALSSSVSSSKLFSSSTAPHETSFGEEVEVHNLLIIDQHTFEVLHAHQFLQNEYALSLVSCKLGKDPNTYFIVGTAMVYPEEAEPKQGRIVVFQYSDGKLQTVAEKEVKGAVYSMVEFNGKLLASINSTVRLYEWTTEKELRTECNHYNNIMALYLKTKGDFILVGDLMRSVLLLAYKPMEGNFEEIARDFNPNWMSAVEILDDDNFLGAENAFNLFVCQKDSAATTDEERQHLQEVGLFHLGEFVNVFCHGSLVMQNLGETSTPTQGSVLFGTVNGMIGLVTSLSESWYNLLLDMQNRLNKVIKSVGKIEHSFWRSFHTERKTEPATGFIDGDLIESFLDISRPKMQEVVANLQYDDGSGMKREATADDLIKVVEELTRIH

SMILES | pIC50 [1] | pEC50 [2]
CC(=O)N1CC(n2cc(S(=O)(=O)Nc3cccc4c(Cl)c[nH]c34)cn2)C1 [Compound 27, 1-(1-acetylazetidin-3-yl)-N-(3-chloro-1H-indol-7-yl)pyrazole-4-sulfonamide] | > 6.60 | < 6.00
CC(C)(CO)n1cc(S(=O)(=O)Nc2cccc3c(C#N)c[nH]c23)cn1 [Compound 235, N-(3-cyano-1H-indol-7-yl)-1-(2-hydroxy-1,1-dimethyl-ethyl)pyrazole-4-sulfonamide] | > 6.60 | 6.00 to 6.60
Cc1ccc(NS(=O)(=O)c2cnn(CC3(F)COC3)c2)c2[nH]cc(C#N)c12 [Compound 72, N-(3-cyano-4-methyl-1H-indol-7-yl)-1-[(3-fluorooxetan-3-yl)methyl]pyrazole-4-sulfonamide] | > 6.60 | 6.00 to 6.60
Cc1ccc(NS(=O)(=O)c2cnn(C)c2CCO)c2[nH]cc(C#N)c12 [Compound 239, N-(3-cyano-4-methyl-1H-indol-7-yl)-5-(2-hydroxyethyl)-1-methyl-pyrazole-4-sulfonamide] | > 6.60 | < 6.00
Cc1ccc(NS(=O)(=O)c2cnn(CF)c2)c2[nH]cc(C#N)c12 [Compound 70, N-(3-cyano-4-methyl-1H-indol-7-yl)-1-(fluoromethyl)pyrazole-4-sulfonamide] | > 6.60 | > 6.60
CC(C)(C(N)=O)n1cc(S(=O)(=O)Nc2ccc(F)c3c(C#N)c[nH]c23)cn1 [Compound 240, 2-[4-[(3-cyano-4-fluoro-1H-indol-7-yl)sulfamoyl]pyrazol-1-yl]-2-methyl-propanamide] | > 6.60 | < 6.00
CC(C)(CO)n1cc(S(=O)(=O)Nc2ccc(F)c3c(C#N)c[nH]c23)c(Cl)n1 [Compound 261, 3-chloro-N-(3-cyano-4-fluoro-1H-indol-7-yl)-1-(2-hydroxy-1,1-dimethyl-ethyl)pyrazole-4-sulfonamide] | > 6.60 | < 6.00
CC(C)(O)Cn1cc(S(=O)(=O)Nc2ccc(Cl)c3c(C#N)c[nH]c23)c(F)n1 [Compound 204, N-(4-chloro-3-cyano-1H-indol-7-yl)-3-fluoro-1-(2-hydroxy-2-methyl-propyl)pyrazole-4-sulfonamide] | > 6.60 | < 6.00
N#Cc1c[nH]c2c(NS(=O)(=O)c3cnn([C@H]4CNC[C@H]4F)c3)ccc(Cl)c12 [Compound 152, N-(4-chloro-3-cyano-1H-indol-7-yl)-1-[(3S,4R)-4-fluoropyrrolidin-3-yl]pyrazole-4-sulfonamide] | > 6.60 | < 6.00
NC(=O)Cn1cc(S(=O)(=O)Nc2cccc3c(Cl)c[nH]c23)cn1 [Compound 16, 2-[4-[(3-chloro-1H-indol-7-yl)sulfamoyl]pyrazol-1-yl]acetamide] | > 6.60 | 6.00 to 6.60
O=S(=O)(Nc1ccc(C(F)(F)F)c2c(Cl)c[nH]c12)c1cnn(CC(F)F)c1 [Compound 103, N-[3-chloro-4-(trifluoromethyl)-1H-indol-7-yl]-1-(2,2-difluoroethyl)pyrazole-4-sulfonamide] | > 6.60 | < 6.00
CCn1cc(S(=O)(=O)Nc2ccc(F)c3c(C#N)c[nH]c23)cn1 [Compound 217, N-(3-cyano-4-fluoro-1H-indol-7-yl)-1-ethyl-pyrazole-4-sulfonamide] | > 6.60 | 6.00 to 6.60
NC(=O)Cn1cc(S(=O)(=O)n2cc(S(=O)(=O)Nc3cccc4c(Cl)c[nH]c34)cn2)cn1 [Compound 17, 2-[4-[4-[(3-chloro-1H-indol-7-yl)sulfamoyl]pyrazol-1-yl]sulfonylpyrazol-1-yl]acetamide] | > 6.60 | 6.00 to 6.60
N#Cc1c[nH]c2c(NS(=O)(=O)c3cnn(CF)c3N)ccc(F)c12 [Compound 309, 5-amino-N-(3-cyano-4-fluoro-1H-indol-7-yl)-1-(fluoromethyl)pyrazole-4-sulfonamide] | > 6.60 | < 6.00
Cc1ccc(NS(=O)(=O)c2cnn(CC3(F)CNC3)c2)c2[nH]cc(C#N)c12 [Compound 257, N-(3-cyano-4-methyl-1H-indol-7-yl)-1-[(3-fluoroazetidin-3-yl)methyl]pyrazole-4-sulfonamide] | > 6.60 | 6.00 to 6.60
Cc1ccc(NS(=O)(=O)c2cnn([C@H]3CN(C(=O)OC(C)(C)C)C[C@H]3F)c2)c2[nH]cc(C#N)c12 [Compound 153, tert-butyl (3S,4R)-3-[4-[(3-cyano-4-methyl-1H-indol-7-yl)sulfamoyl]pyrazol-1-yl]-4-fluoro-pyrrolidine-1-carboxylate] | > 6.60 | < 6.00
Cc1ccc(NS(=O)(=O)c2cnn(C34CC(C3)C4)c2)c2[nH]cc(C#N)c12 [Compound 218, 1-(3-bicyclo[1.1.1]pentanyl)-N-(3-cyano-4-methyl-1H-indol-7-yl)pyrazole-4-sulfonamide] | > 6.60 | 6.00 to 6.60

SMILES | pIC50 [1] | pEC50 [2]
N#Cc1c[nH]c2c(NS(=O)(=O)c3cnn(CC4(CO)CC4)c3)ccc(Cl)c12 [Compound 195, N-(4-chloro-3-cyano-1H-indol-7-yl)-1-[[1-(hydroxymethyl)cyclopropyl]methyl]pyrazole-4-sulfonamide] | > 6.60 | 6.00 to 6.60
Cn1cc(S(=O)(=O)Nc2ccc(C(F)(F)F)c3cc[nH]c23)cn1 [Compound 96, 1-methyl-N-[4-(trifluoromethyl)-1H-indol-7-yl]pyrazole-4-sulfonamide] | 6.00 to 6.60 | < 6.00
N#Cc1c[nH]c2c(NS(=O)(=O)c3cnn(CC(F)(F)F)c3)ccc(F)c12 [Compound 216, N-(3-cyano-4-fluoro-1H-indol-7-yl)-1-(2,2,2-trifluoroethyl)pyrazole-4-sulfonamide] | > 6.60 | 6.00 to 6.60
Cc1ccc(NS(=O)(=O)c2cnn(CC3(C)COC3)c2)c2[nH]cc(C#N)c12 [Compound 71, N-(3-cyano-4-methyl-1H-indol-7-yl)-1-[(3-methyloxetan-3-yl)methyl]pyrazole-4-sulfonamide] | > 6.60 | 6.00 to 6.60
Cc1ccc(NS(=O)(=O)c2cnn(CC(=O)N(C)C)c2)c2[nH]cc(C#N)c12 [Compound 140, 2-[4-[(3-cyano-4-methyl-1H-indol-7-yl)sulfamoyl]pyrazol-1-yl]-N,N-dimethyl-acetamide] | 6.00 to 6.60 | < 6.00
Cc1ccc(NS(=O)(=O)c2cnn(C3CCOC3)c2)c2[nH]cc(C#N)c12 (stereo not drawn) [Compound 29, N-(3-cyano-4-methyl-1H-indol-7-yl)-1-tetrahydrofuran-3-yl-pyrazole-4-sulfonamide] | > 6.60 | 6.00 to 6.60
Cc1ccc(NS(=O)(=O)c2cnn(CC(=O)NC3CC(F)(F)C3)c2)c2[nH]cc(C#N)c12 [Compound 137, 2-[4-[(3-cyano-4-methyl-1H-indol-7-yl)sulfamoyl]pyrazol-1-yl]-N-(3,3-difluorocyclobutyl)acetamide] | > 6.60 | < 6.00
N#Cc1c[nH]c2c(NS(=O)(=O)c3cnn(CC(F)F)c3)ccc(C(F)(F)F)c12 [Compound 104, N-[3-cyano-4-(trifluoromethyl)-1H-indol-7-yl]-1-(2,2-difluoroethyl)pyrazole-4-sulfonamide] | > 6.60 | 6.00 to 6.60
Cc1ccc(NS(=O)(=O)c2cnn(C)c2F)c2[nH]cc(C#N)c12 [Compound 112, N-(3-cyano-4-methyl-1H-indol-7-yl)-5-fluoro-1-methyl-pyrazole-4-sulfonamide] | > 6.60 | 6.00 to 6.60
N#Cc1c[nH]c2c(NS(=O)(=O)c3cnn(CF)c3)ccc(F)c12 [Compound 302, N-(3-cyano-4-fluoro-1H-indol-7-yl)-1-(fluoromethyl)pyrazole-4-sulfonamide] | > 6.60 | 6.00 to 6.60
N#Cc1c[nH]c2c(NS(=O)(=O)c3cnn(CC4(O)CCOCC4)c3)ccc(Cl)c12 [Compound 184, N-(4-chloro-3-cyano-1H-indol-7-yl)-1-[(4-hydroxytetrahydropyran-4-yl)methyl]pyrazole-4-sulfonamide] | > 6.60 | < 6.00
Cc1ccc(NS(=O)(=O)c2cnn(CC(C)(C)O)c2)c2[nH]cc(C#N)c12 [Compound 108, N-(3-Cyano-4-methyl-1H-indol-7-yl)-1-(2-hydroxy-2-methyl-propyl)pyrazole-4-sulfonamide] | > 6.60 | 6.00 to 6.60
CC(C)(C)OC(=O)N1CCC(n2cc(S(=O)(=O)Nc3cccc4c(Cl)c[nH]c34)cn2)CC1 [Compound 26, tert-butyl 4-[4-[(3-chloro-1H-indol-7-yl)sulfamoyl]pyrazol-1-yl]piperidine-1-carboxylate] | > 6.60 | < 6.00
CCn1ncc(S(=O)(=O)Nc2ccc(C)c3c(C#N)c[nH]c23)c1F [Compound 102, N-(3-Cyano-4-methyl-1H-indol-7-yl)-1-ethyl-5-fluoro-pyrazole-4-sulfonamide] | > 6.60 | > 6.60
N#Cc1c[nH]c2c(NS(=O)(=O)c3cnn(C(F)CO)c3)ccc(F)c12 (stereo not drawn) [Compound 298, N-(3-cyano-4-fluoro-1H-indol-7-yl)-1-(1-fluoro-2-hydroxy-ethyl)pyrazole-4-sulfonamide] | > 6.60 | 6.00 to 6.60
CC(C)(O)CCn1cc(S(=O)(=O)Nc2ccc(F)c3c(C#N)c[nH]c23)cn1 [Compound 222, N-(3-cyano-4-fluoro-1H-indol-7-yl)-1-(3-hydroxy-3-methyl-butyl)pyrazole-4-sulfonamide] | > 6.60 | 6.00 to 6.60

Source: patent publication US20250368627A1, “PYRAZOLESULFONAMIDES AS ANTITUMOR AGENTS” (Peloton Therapeutics, Inc., a fully owned subsidiary of …, priority 2019, published 2025)
